# In publication PMC12040169 (PLOS Biology, 2025):
# Assay: in vitro
# Settings: human, hela cells, % viability
row,Structure (SMILES),"viability at 28.5 h, 10 µM [%]"
1,O=C(NC(c1ccccc1)c1ccccc1)C1(c2ccccc2)CCCC1 [CBK149536],96.8
2,O=C(NCc1ccco1)C1(c2ccccc2)CCCC1 [CBK149539],96
3,O=C(NCc1cccs1)c1ccccc1Nc1cccc(C(F)(F)F)c1 [CBK149557],104
4,CS(=O)(=O)c1ccc(CNC(=O)c2ccccc2Nc2cccc(C(F)(F)F)c2)cc1 [CBK149580],92
5,CC(C)c1ccc(/C=C/C(=O)NCc2cccs2)cc1 [CBK149587],100
6,COc1ccc(OCCNC(=O)c2ccccc2-n2cccc2)cc1 [CBK149592],95.6
7,CN(C)CC(C)(C)CNC(=O)c1ccccc1-n1cccc1 [CBK149600],92.3
8,O=C(NCc1cccnc1)c1ccccc1-n1cccc1 [CBK149602],92.3
9,O=C(NCC1CCCCC1)c1ccccc1-n1cccc1 [CBK149603],91.7
10,O=C(c1ccccc1-n1cccc1)N1CCCC1 [CBK149608],81.6
11,CCOC(=O)CCNC(=O)c1ccccc1-n1cccc1 [CBK149611],95.3
12,Cc1cc(CNC(=O)/C=C/c2ccc(C(C)C)cc2)no1 [CBK149614],103
13,CC(C)c1ccc(/C=C/C(=O)NCc2ccc3occc3c2)cc1 [CBK149620],93.3
14,Cc1cnc(CNC(=O)/C=C/c2ccc(C(C)C)cc2)cn1 [CBK149625],99.4
15,CC(C)c1ccc(/C=C/C(=O)NCCc2c[nH]cn2)cc1 [CBK149629],101
16,CC(C)c1ccc(/C=C/C(=O)NCc2ccccc2)cc1 [CBK149635],112
17,CCN(CC)C(=O)/C=C/c1ccc(C(C)C)cc1 [CBK149636],93.1
18,COc1ccc2[nH]cc(CCNC(=O)/C=C/c3ccc(C(C)C)cc3)c2c1 [CBK149639],91.7
19,CC(C)c1ccc(/C=C/C(=O)NC2CC2)cc1 [CBK149640],105
20,CCOC(=O)CCNC(=O)/C=C/c1ccc(C(C)C)cc1 [CBK149643],102
21,O=c1[nH]c2ccccc2n1C1CCN(S(=O)(=O)c2cccs2)CC1 [CBK149689],98.4
22,O=c1[nH]c2ccccc2n1C1CCN(S(=O)(=O)c2ccc(OC(F)(F)F)cc2)CC1 [CBK149690],93.8
23,Cc1ccc(S(=O)(=O)N2CCC(n3c(=O)[nH]c4ccccc43)CC2)cc1Cl [CBK149691],90.8

row,Structure (SMILES),"viability at 28.5 h, 10 µM [%]"
1,O=c1[nH]c2ccccc2n1C1CCN(S(=O)(=O)c2cc(Cl)cc(Cl)c2O)CC1 [CBK149694],81.4
2,O=S(=O)(Nc1nccnc1Cl)c1ccccc1Cl [CBK149698],84.3
3,O=C(C1CCCCC1)N1CCC(n2c(=O)[nH]c3ccccc32)CC1 [CBK149703],92.8
4,O=C(c1ccccc1C(F)(F)F)N1CCC(n2c(=O)[nH]c3ccccc32)CC1 [CBK149706],97
5,O=C(C1CCC1)N1CCC(n2c(=O)[nH]c3ccccc32)CC1 [CBK149709],108
6,CN(C)Cc1ccc2nc(C(F)(F)F)cc(SCCC(=O)O)c2c1 [CBK149715T],91.4
7,CC(=O)Nc1ccc(OCCO)cc1 [CBK149724],86.6
8,CN(C)c1ccc2cccc(O)c2n1 [CBK149729],93.9
9,COc1ccc(CC(=O)N2CCC(C3OCc4cc(-c5ccc(C(=O)N(C)C)cc5)ccc4O3)CC2)cc1 (stereo not shown) [CBK149759],88.2
10,CN(C)C(=O)c1ccc(-c2ccc3c(c2)COC(C2CCN(C(=O)CC4CCCCC4)CC2)O3)cc1 (stereo not shown) [CBK149763],114
11,COc1cccc2cc(C(=O)NCCCN3CCN(C)CC3)oc12 [CBK149788],101
12,COc1cccc2cc(C(=O)NCc3c(F)cccc3F)oc12 [CBK149794],65
13,COc1cccc2cc(C(=O)NCc3ccc(Cl)c(Cl)c3)oc12 [CBK149795],85.2
14,COc1cccc2cc(C(=O)NCc3ccc4c(c3)OCO4)oc12 [CBK149797],90.9
15,COc1cccc2cc(C(=O)NCCc3ccc(O)cc3)oc12 [CBK149802],93.9
16,COc1cccc2cc(C(=O)NCCN3CCOCC3)oc12 [CBK149807],101
17,COc1ccc(C2(C(=O)NCCN3CCCC3)CC2)cc1 [CBK149824],95.6
18,COc1ccc(C2(C(=O)NCc3c(F)cccc3F)CC2)cc1 [CBK149826],108
19,COc1ccc(C2(C(=O)NCc3ccc4c(c3)OCO4)CC2)cc1 [CBK149829],103
20,COc1ccc(C2(C(=O)NCc3cnc(C)cn3)CC2)cc1 [CBK149830],98.5
21,COc1ccc(C2(C(=O)NCCc3c[nH]cn3)CC2)cc1 [CBK149834],97.8
22,COc1ccc(C2(C(=O)N3CCN(C)CC3)CC2)cc1 [CBK149837],86.3
23,COc1ccc(C2(C(=O)N[C@H]3CC[C@H](O)CC3)CC2)cc1 [CBK149840],111
